# Test system: HIV-1 LTR-III G-quadruplex (FAM/TAMRA-labeled LTR-III)
# Assay: FRET melting assay, LTR-III G4
# Assay type: binding
# Settings: Table S1 primary screening, ligand:ODN 50:1, singlicate
# Experimental: To evaluate stabilizing properties of the ligands in a complex with oligodeoxyribonucleotides (ODNs) melting with fluorescence registration was used. ODN (0.5 μM) (Table 1), labeled with 6-carboxyfluorescein (FAM) and 6-carboxytetramethylrhodamine (TAMRA) at the 5′- and 3′-end, respectively, were folded in lithium cacodylate buffer (10 mM, pH 7.4) with 100 mM KCl by heating at 95 °C for 5 min and gradually cooling to r.t. GFP chromophore analogs (5 mM solution in DMSO) were diluted with the same buffer to the final concentration of 25 μM and mixed with an equal volume of 0.5 μM ODN solution resulting in a molar ratio of 50:1 (total volume was 50 μL). For the titration experiments molar ratios of 20:1 and 2:1 were used. Samples were analyzed using DTprime qPCR system (DNA-Technology LLC, Moscow, Russia). Fluorescence was registered by detection of FAM emission at 520 nm upon excitation at 495 nm in the temperature range of 30–95 °C with 1 °C/min gradient. Tm was determined using the instrument software and ΔTm was calculated relative to ODN Tm in a buffer solution containing 0.25% (v/v) DMSO. The primary and secondary screening were carried out in singlicate and triplicate, respectively.
row,Compound,LTR-III ΔTm
1,CCN(CC)C(=S)Oc1ccc(C=C2N=C(C)N(C)C2=O)cc1 [M 2081],0.1 °C
2,CCCC1=N/C(=C\c2ccncc2)C(=O)N1C [M 2237],-0.3 °C
3,CC1=NC(=Cc2ccncc2)C(=O)N1CCNC(=O)OC(C)(C)C [M 2250.2],-0.1 °C
4,CC1=NC(=Cc2cc(C(C)(C)C)c(O)c(C(C)(C)C)c2)C(=O)N1C [M 2273.1],0.2 °C
5,CCOC(=O)CN1C(=O)C(=Cc2ccc(O)c(F)c2)N=C1C [M 2286.1],-0.3 °C
6,CC1=NC(=Cc2cc(F)c(O)c(F)c2)C(=O)N1C [M 2296],-0.4 °C
7,COc1ccc(O)c(C=C2N=C(C)N(C)C2=O)c1 [M 2360],-0.3 °C
8,CN1C(=O)C(=Cc2ccc(N(C)C)cc2)N=C1C=Cc1cc(Br)c(O)c(Br)c1 [M 2368c],0 °C
9,CCN(CC)c1ccc(C=C2N=C(C=Cc3cc(Br)c(O)c(Br)c3)N(C)C2=O)cc1 [M 2368d],0.1 °C
10,CC(=O)Oc1ccc(C=C2N=C(C)N(C)C2=O)cc1 [M 2370],0 °C
11,COc1ccc(/C=C2N=C(/C=C/N3CCOCC3)N(C)C\2=O)cc1 [M 2371c],-0.1 °C
12,CN1C(=O)C(=Cc2ccc(O)cc2)N=C1C(=O)c1ccccc1 [M 2372a],0.1 °C
13,CCC(=O)C1=NC(=Cc2ccc(O)cc2)C(=O)N1C [M 2372в],-0.2 °C
14,CC1=NC(=Cc2cccc(C(F)(F)F)c2)C(=O)N1C [M 2375],-0.2 °C
15,COc1ccc(C=C2N=C(C)N(C)C2=O)c(OC)c1 [M 2379],0.1 °C
16,CN1C(=O)C(=Cc2ccc(C#N)cc2)N=C1Nc1ccccc1 [M 2385a],-0.1 °C
17,CN1C(=O)C(=Cc2ccccc2)N=C1Nc1ccccc1 [M 2385b1],-0.1 °C
18,CC1=NC(=Cc2ccc(O)c([N+](=O)[O-])c2)C(=O)N1C [M 2482],-1.2 °C
19,CCOc1cc(C=C2N=C(C)N(C)C2=O)ccc1O [M 2486],0 °C
20,CC1=NC(=Cc2ccc(O)c(C#N)c2)C(=O)N1C [M 2489.2],-0.5 °C
21,COc1cc(C=C2N=C(C)N(C)C2=O)ccc1O [M 2491],-0.2 °C

row,Compound,LTR-III ΔTm
1,O=C1NC(=S)NC1=Cc1ccc(O)cc1 [M 2497],0 °C
2,COc1cc(/C=C2N=C(/C=C/c3ccccc3)N(C)C\2=O)ccc1O [M 2499a],0.1 °C
3,CN1C(=O)C(=Cc2ccc(O)c(O)c2)N=C1C=Cc1ccccc1 [M 2499b],0.3 °C
4,COc1cc(O)ccc1C=C1N=C(C(F)(F)F)N(C)C1=O [M 2738c],0.4 °C
5,COc1cc(C=C2N=C(C(F)(F)F)N(C)C2=O)c(OC)cc1O [M 2738d],1.4 °C
6,COc1cc(O)ccc1/C=C/C1=[N+](C)c2ccccc2C1(C)C.[O-][Cl+3]([O-])([O-])[O-] [M 2761a],0.5 °C
7,COc1cc(O)ccc1C=C1N=C(C=Cc2ccccn2)N(C)C1=O [M 2766],1.1 °C
8,COc1cc(O)ccc1/C=C1N=C(/C=C/c2ccccc2)N(C)C\1=O [MID 145],0.9 °C
9,COc1cc(O)ccc1C=C1N=C(C=Cc2ccc(N(C)C)cc2)N(C)C1=O [MID 147],0.4 °C
10,COc1cc(O)ccc1C=C1N=C(C=C(C#N)c2ccccc2)N(C)C1=O [MID 151],0.2 °C
11,COc1cc(O)ccc1/C=C1N=C(/C=C(\C#N)c2cccs2)N(C)C\1=O [MID 153],2 °C
12,CN1C(=O)C(=Cc2ccc(O)cc2N(C)C)N=C1C=Cc1ccncc1 [MID 213],0.9 °C
13,COc1ccc2cc(CO)ccc2c1 [N 49],-0.1 °C
14,CC1=CC(C)(C)N(C)c2ccc(C=CC3=NC(=Cc4ccc5c(c4)C(C)=CC(C)(C)N5C)C(=O)N3CCCC(=O)O)cc21 [N 62],0.6 °C
15,CC1=NC(=Cc2cc3c4c(c2)CCCN4CCC3)C(=O)N1CCO [N 111],1 °C
16,CC1=CC(C)(C)N(C)c2ccc(C=C3N=C(C)N(CCCCO)C3=O)cc21 [N 141],0.2 °C
17,CC1=NC(=Cc2cc3c4c(c2)CCCN4CCC3)C(=O)N1CCCC(=O)O [N 152],0.3 °C
18,Cc1ccc(C(O)=CC2=NC(=Cc3ccc(O)cc3)C(=O)N2C)cc1 [N 154],-0.1 °C
19,CCN(CC)c1ccc(C=C2N=C(C)N(CCCCO[Si](c3ccccc3)(c3ccccc3)C(C)(C)C)C2=O)cc1 [N 162],0.2 °C
20,CCN(CC)c1ccc(C=C2N=C(C)N(CCCCO)C2=O)cc1 [N 182],-0.1 °C
21,CCN(CC)c1ccc(C=C2N=C(C)N(CCCCCl)C2=O)cc1 [N 189],0.2 °C

row,Compound,LTR-III ΔTm
1,COc1ccc(C=C2N=C(C=C(O)c3ccc(Br)cc3)N(C)C2=O)cc1 [N 537],-0.3 °C
2,COc1ccc(C=C2N=C(C=C(O)c3cccs3)N(C)C2=O)cc1 [N 539.1],0 °C
3,CC1=NC(=Cc2ccc3cc(N4CCCC4)ccc3c2)C(=O)N1C [N 555.3],0.7 °C
4,CCNc1ccc2cc(Br)ccc2c1 [N 576.2],0 °C
5,Oc1ccc2cc(Br)ccc2c1 [N 576.3],0 °C
6,CCN(CC)c1ccc2c(C=CN(C)C)cc(=O)oc2c1 [N 582.1],0 °C
7,COc1ccc(C=C2N=CN(C)C2=O)cc1 [N 599.2],-0.7 °C
8,CCN(CC)c1ccc2cc(C=C3N=C(C)N(C)C3=O)ccc2c1 [N 601.23],-0.7 °C
9,CN1C=NC(=Cc2ccc(O[Si](c3ccccc3)(c3ccccc3)C(C)(C)C)cc2)C1=O [N 624],-0.5 °C
10,CCN(CC)c1ccc(C=C2N=C3C=CC=CN3C2=O)cc1 [N 641],-0.5 °C
11,CC1=NC(=Cc2ccc3c(c2)CCN3)C(=O)N1C [N 652.3],0.3 °C
12,CC1=NC(=Cc2ccc(N3CCCCC3)cc2)C(=O)N1C [N 665],-0.3 °C
13,CC1=NC(=Cc2ccccc2O)C(=O)N1 [N 702.1],0 °C
14,CC1=NC(=Cc2ccc(N3CCCC3)cc2)C(=O)N1C [N 704],-0.2 °C
15,CC1=NC(=Cc2ccc(N3CCCCCC3)cc2)C(=O)N1C [N 708.2],0.2 °C
16,CC1=NC(=Cc2ccc(N3CCC3)cc2)C(=O)N1C [N 710.12],0.1 °C
17,CN1C(=O)C(=Cc2ccncc2)N=C1C=Cc1ccncc1 [N 768],0.9 °C
18,CC1=NC(=Cc2cccc(F)c2O)C(=O)N1C [N 781],0 °C
19,CC1=NC(=Cc2ccc3[nH]c(C)c(C)c3c2)C(=O)N1C [N 792],0.2 °C
